The source of these data is patent EP0770606A1, “Cis-epoxide derivate useful as irreversible HIV protease inhibitor and process for its preparation” (LG Chemical Limited, priority 1995, dated 1997).

Data set [1] has as its system HIV-1. The experiment in a line: Anti-viral activity: inhibition of HIV proliferation in H9 (reverse transcriptase activity) and Sup T1 (syncytium formation) cell lines. The format is cell-based. Particulars: concentration at which the proliferation of HIV is inhibited by 50%, H9 or Sup T1 cells, cell line not stated. Here is the method:
1 x 10^5 cells of each of H9(ATCC HTB 176) and Sup T1 cell lines were added to the wells of a 24-well microtiter plate and the compound of the present invention was added thereto in various concentrations. 200 TCID50(200-fold of 50% tissue culture infection dose) of HIV-1 inoculum and rpmi-1640 medium(Sigma Chemical Co., U.S.A) were added successively to the wells and the plate was incubated at 37°C. In case of Sup T1, the number of syncytium formed was investigated after 3 to 9 days.
In the case of H9, three-quarters(3/4) of the culture medium was refreshed every 3 days. After 9 days, 6ml of the culture fluid was centrifuged at 1000rpm for 10 minutes. To 5ml of the resulting supernatant were added 2.5ml of 30% polyethylene glycol(PEG, M.W. 6000-8000) and 0.4M NaCl. The resulting solution was allowed to stand at 0°C overnight to precipitate virus particles. The solution was centrifuged at 2000rpm for 45 minutes, the supernatant was discarded therefrom and the precipitate was diluted with 20ml of a reverse transcriptase suspension buffer(50mM tris-HCl(Sigma), pH 7.5, 1mM dithiothreitol, 20% glycerol, 0.25M KCl and 0.25% Triton X-100). The resulting suspension was stored in an Effendorf tube at -70°C until use. A cycle of freezing the above virus suspension for 2 minutes in dry ice and thawing it at 37°C for 2 minutes was repeated three times and the resulting suspension was centrifuged at 4°C. The resulting supernatant was used in carrying out the reverse transcriptase assay.
10µl of the above virus suspension was added to a solution prepared by mixing: 10µl of buffer solution(250mM tris-HCl, pH 7.5, 37.5mM MgCl2, 0.25% triton X-100), 1.2µl of 200mM dithiothreitol, 5µl of 10µM oligo(dT)-poly(A)(Boeringer Mannheim, 12-18 oligomer), 1µl(1µCi) of ^3H-TTP(thymidinetriphosphate) and 23.6µl of water; and the resulting mixture was kept at 37°C. […] The amount of radioactivity was counted using a liquid scintillation counter.

A short description of data set [2]: Cytotoxicity by trypan blue dye exclusion. It counts as cell-based. The following applies: human, h9 or sup t1 cells; concentration at which 50% of the cells die; 0.1µM to 100µM tested; cell line not stated; read-out: CT50 (the source's name). Here is the method: (§1) To determine the cytotoxicity of the compound of the present invention, 0.1µM to 100µM of the compound was added to H9 cell or Sup T1 cell and the mixture was cultured on a rpmi-1640 medium at 37°C. The medium was refreshed every 3 days and the extent of cell proliferation was observed using Hemacytometer according to the trypan blue dye exclusion technique which is well known in the art. CT50(i.e., the concentration at which 50% of the cells die) was determined.

For data set [3], the system named is H9 cell or Sup T1 cell. Briefly: Cytotoxicity by trypan blue dye exclusion. It counts as cell-based. Particulars: human, h9 or sup t1 cells. The method, then:
as §1

In data set [4] the target is T1, HIV-1 protease (Human immunodeficiency virus type 1 group M subtype B, UniProt P04585).
T1 construct: adding 2.6nM of HIV-1 protease to the preincubation solution
It counts as biochemical. Particulars: KINSIM/FITSIM analysis.
Description: To a buffer solution comprising 50mM sodium acetate, pH 5.5, 1mM dithiothreitol(DTT), 1mM ethylenediaminetetraacetate (EDTA), 0.75M ammonium sulfate and 0.1% NP40(NONIDET P-40; Sigma Chemical Co., U.S.A.), was added a pre-determined amount of the compound obtained in Example to prepare a preincubation solution having a known concentration of the compound. The inhibition reaction was initiated by adding 2.6nM of HIV-1 protease to the preincubation solution. 10µl samples of the reaction solution were taken at a given time interval and each sample was added to 80µl of assay solution containing 100µM of reaction substrate in the same buffer solution as above to assay for the residual enzyme activity. […] The reaction rate was determined by subjecting both the substrate before the reaction and the product after the reaction to HPLC separation and then measuring the amount of the product relative to the substrate, using the strong absorbance of (p-NO2)-Phe at 280nm. The decrease in the enzyme activity with time was measured for each sample and the natural logarithmic values(ln) of the data points in a given experiment were plotted against time to obtain a linear correlation line. kobs was then calculated from the slope of the line.
The inhibition constant was calculated according to the following equation: (1)/(kobs)=(1)/(kina)+(KI)/(kina)(1)/([I]) [formula] wherein: kobs is a rate constant representing the rate of decrease in enzyme activity in the presence of the inhibitor, kina is a rate constant representing the rate of the irreversible covalent bond formation between the enzyme and the inhibitor (in Michaelis-Menten complex), KI is an inhibition constant represented by the equilibrium constant for the formation of the Michaelis-Menten complex from an enzyme and an inhibitor, and [I] designates the inhibitor concentration.
The inhibition constants KI, the rate constant kina and the second order rate constant kina/KI were tabulated by inputting the value of [E]/([E]+[EI]+[EI'] [formula] ) into KINSIM/FITSIM program.

Turning to `CC(C)c1nc(CN(C)C(=O)N[C@H](C(=O)N[C@@H](Cc2ccccc2)C[C@H](O)[C@H](Cc2ccccc2)NC(=O)OCc2cncs2)C(C)C)cs1` [ABI-538], 53 nM corresponded to half-maximal inhibition in data set [1] (IC50).
With `CC(C)(C)NC(=O)[C@@H]1CN(Cc2cccnc2)CCN1C[C@@H](O)C[C@@H](Cc1ccccc1)C(=O)N[C@H]1c2ccccc2C[C@H]1O` [MK-639, reference compound], half-maximal inhibition in data set [1] (Human immunodeficiency virus 1) (IC50) was put at 10 nM. Also, in data set [2], the CC50 came to 10000 nM.
Turning to “[(5S)-[(N-isopropyloxycarbonyl)-β-methanesulfonyl-L-valinyl]amino]-(4R, 3S)-epoxy-6-phenyl-1-hexanoyl]-[(2S)-(1-phenyl-3-methyl-1-oxo)butylamino]amide [compound of the present invention]”, the IC50 – broadly, the point on the concentration scale where inhibition reaches its midpoint – in data set [1] was determined as 15 nM. In data set [3], this compound came in with a CC50 of 10000 nM. Besides, the Ki (in general, the equilibrium dissociation constant of an inhibitor or competing ligand from its target) in data set [4] (inhibition constant, 2.6nM HIV-1 protease, pH 5.5) came out at 12 nM. The compound further returned a kina in data set [4] (rate constant of irreversible covalent bond formation between enzyme and inhibitor) of 3.2 min⁻¹. Moreover, in data set [4] (second order rate constant), the kina/KI is reported as 2.7 x 10^7 min^-1M^-1.
